Laboratory results as given in US6472348B1, “Pyridone derivatives and herbicides” (Kumiai Chemical Industry Co., Ltd., priority 1996, dated 2002).

Columns and labels:
rice flatsedge (Ci) [1] = assay: Test Example 2: herbicidal effects by upland field soil treatment; type: in vivo; details: 100 g of the active ingredient per 10 ares, evaluated on the 21st day after application;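 note: grade of growth control; 5 = at least 90%; 4 = 70 to 90%; 3 = 50 to 70%; 2 = 30 to 50%; 1 = 10 to 30%; 0 = under 10%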
Excerpt: (§1) (Test on Herbicidal Effects by Upland Field Soil Treatment)

pale smartweed (Po) [2] = assay: as above; type: in vivo; details: 100 g of the active ingredient per 10 ares, evaluated on the 21st day after application
Excerpt: as §1

Digitaria ciliaris (Di) = assay: as above; type: in vivo; details: 100 g of the active ingredient per 10 ares, evaluated on the 21st day after application;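 note: grade of growth control; 5 = at least 90%; 4 = 70 to 90%; 3 = 50 to 70%; 2 = 30 to 50%; 1 = 10 to 30%; 0 = under 10%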
Excerpt: as §1

slender amaranth (Am) [3] = assay: as above; type: in vivo; details: 100 g of the active ingredient per 10 ares, evaluated on the 21st day after application
Excerpt: as §1

barnyardgrass (Ec) [4] = assay: as above; type: in vivo; details: 100 g of the active ingredient per 10 ares, evaluated on the 21st day after application
Excerpt: as §1

[5] = tested on: common lambsquarters (Ch); assay: as above; type: in vivo; details: 100 g of the active ingredient per 10 ares, evaluated on the 21st day after application
Excerpt: as §1

monochoria (Mo) = assay: Test Example 1: herbicidal effects by paddy field soil treatment; type: in vivo; details: 100 g of the active ingredient per 10 ares, 21st day after the application, index 0-5 of Table 47;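 note: grade of growth control; 5 = at least 90%; 4 = 70 to 90%; 3 = 50 to 70%; 2 = 30 to 50%; 1 = 10 to 30%; 0 = under 10%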
Method in brief: (§2)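 Herbicidal effect was scored against a graded standard 21 days after treatment. Seeds were sown in puddled, leveled paddy soil flooded to 3 cm depth, and the active ingredient was applied at 100 g per 10 ares before greenhouse culture.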

bulrush (Sc) = assay: as above; type: in vivo; details: 100 g of the active ingredient per 10 ares, 21st day after the application, index 0-5 of Table 47;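 note: grade of growth control; 5 = at least 90%; 4 = 70 to 90%; 3 = 50 to 70%; 2 = 30 to 50%; 1 = 10 to 30%; 0 = under 10%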
Method in brief: as §2

barnyardgrass (Ec) [6] = assay: as above; type: in vivo; details: 100 g of the active ingredient per 10 ares, 21st day after the application, index 0-5 of Table 47
Method in brief: as §2

pale smartweed (Po) [7] = assay: Test Example 11: crop plant selectivity by upland field foliage treatment (corn), herbicidal effects; type: in vivo; set-up: scale not given here; details: upland field foliage treatment (corn test), dose 1.6 g ai/10a, 14th day after treatment
Procedure: (§3) (Test on Crop Plant Selectivity by Upland Field Foliage Treatment)
(§4) In a plastic pot (surface area: 600 cm^2) filled with sand, corn (Ze), pale smartweed (Po), slender amaranth (Am), common lambsquarters (Ch) and China jute (Ab) were sown and cultured in a green house for 2 weeks. […] The plants were then cultured in a green house, and the evaluation of the herbicidal effects and phytotoxicity was conducted on the 14th day after the treatment in accordance with the standards as identified in Table 47.

slender amaranth (Am) [8] = assay: as above; type: in vivo; set-up: scale not given here; details: upland field foliage treatment (corn test), dose 1.6 g ai/10a, 14th day after treatment
Procedure: as §3, §4

China jute (Ab) [9] = assay: as above; type: in vivo; set-up: scale not given here; details: upland field foliage treatment (corn test), dose 1.6 g ai/10a, 14th day after treatment
Procedure: as §3, §4

[10] = tested on: common lambsquarters (Ch); assay: as above; type: in vivo; set-up: scale not given here; details: upland field foliage treatment (corn test), dose 1.6 g ai/10a, 14th day after treatment
Procedure: as §3, §4

corn (Ze) [11] = assay: Test Example 11: crop plant selectivity by upland field foliage treatment (corn), phytotoxicity; details: upland field foliage treatment, dose 1.6 g ai/10a, 14th day after treatment
Procedure: as §3, §4

cotton (Go) = assay: Test Example 4: crop plant selectivity by upland field soil treatment (cotton), phytotoxicity; type: in vivo; set-up: scale not given here; details: dose 6.3 g ai/10 a, evaluated 21st day after application
Method in brief: (§5)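 Cotton and weeds (incl. China jute, pale smartweed, slender amaranth) sown in sand-filled pots and covered with soil, then soil-treated. Grown in greenhouse; herbicidal effect and cotton phytotoxicity scored on day 21 after application against a rating standard.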

pale smartweed (Po) [12] = assay: Test Example 7: crop plant selectivity by upland field soil treatment (corn), herbicidal effects; type: in vivo; set-up: scale not given here; details: dose 6.3 g ai/10a, 21st day after application
Method in brief: (§6)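 Corn and weed seeds were sown in sand-filled pots and covered with soil. After application, plants were grown in a greenhouse, and herbicidal effect and crop phytotoxicity were scored against fixed rating standards on day 21.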

green foxtail (Se) [13] = assay: as above; type: in vivo; set-up: scale not given here; details: dose 6.3 g ai/10a, 21st day after application
Method in brief: as §6

slender amaranth (Am) [14] = assay: as above; type: in vivo; set-up: scale not given here; details: dose 6.3 g ai/10a, 21st day after application
Method in brief: as §6

China jute (Ab) [15] = assay: as above; type: in vivo; set-up: scale not given here; details: dose 6.3 g ai/10a, 21st day after application
Method in brief: as §6

[16] = tested on: common lambsquarters (Ch); assay: as above; type: in vivo; set-up: scale not given here; details: dose 6.3 g ai/10a, 21st day after application
Method in brief: as §6

pale smartweed (Po) [17] = assay: Test Example 9: crop plant selectivity by upland field foliage treatment (wheat), herbicidal effects; type: in vivo; set-up: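 grade of growth control; 5 = at least 90%; 4 = 70 to 90%; 3 = 50 to 70%; 2 = 30 to 50%; 1 = 10 to 30%; 0 = under 10%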; details: dose 1.6 g ai/10a, 14th day after treatment
Method in brief: (§7)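 Wheat and broadleaf weeds were sown together in sand-filled pots and grown for 2 weeks in a greenhouse before foliar treatment. Herbicidal effect on weeds and phytotoxicity to wheat were scored visually against set grading standards on day 14 after treatment, with plants kept in the greenhouse.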

slender amaranth (Am) [18] = assay: as above; type: in vivo; set-up: scale not given here; details: dose 1.6 g ai/10a, 14th day after treatment
Method in brief: as §7

China jute (Ab) [19] = assay: as above; type: in vivo; set-up: scale not given here; details: dose 1.6 g ai/10a, 14th day after treatment
Method in brief: as §7

[20] = tested on: common lambsquarters (Ch); assay: as above; type: in vivo; set-up: scale not given here; details: dose 1.6 g ai/10a, 14th day after treatment
Method in brief: as §7

pale smartweed (Po) [21] = assay: Test Example 4: crop plant selectivity by upland field soil treatment (cotton), herbicidal effects; type: in vivo; set-up: scale not given here; details: dose 6.3 g ai/10 a, evaluated 21st day after application
Method in brief: as §5

green foxtail (Se) [22] = assay: as above; type: in vivo; set-up: scale not given here; details: dose 6.3 g ai/10 a, evaluated 21st day after application
Method in brief: as §5

slender amaranth (Am) [23] = assay: as above; type: in vivo; set-up: scale not given here; details: dose 6.3 g ai/10 a, evaluated 21st day after application
Method in brief: as §5

China jute (Ab) [24] = assay: as above; type: in vivo; set-up: scale not given here; details: dose 6.3 g ai/10 a, evaluated 21st day after application
Method in brief: as §5

[25] = tested on: common lambsquarters (Ch); assay: as above; type: in vivo; set-up: scale not given here; details: dose 6.3 g ai/10 a, evaluated 21st day after application
Method in brief: as §5

wheat (Tr) = assay: Test Example 9: crop plant selectivity by upland field foliage treatment (wheat), phytotoxicity; details: dose 1.6 g ai/10a, 14th day after treatment
Method in brief: as §7

rice flatsedge (Ci) [26] = assay: Test Example 3: herbicidal effects by upland field foliage treatment; type: in vivo; set-up: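 grade of growth control; 5 = at least 90%; 4 = 70 to 90%; 3 = 50 to 70%; 2 = 30 to 50%; 1 = 10 to 30%; 0 = under 10%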; details: 100 g active ingredient per 10 ares, evaluated 14th day after treatment
Method in brief: (§8)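 Weeds sown in sand-filled pots and grown 2 weeks in a greenhouse before foliage treatment. Plants then kept in the greenhouse; herbicidal effect scored on day 14 after treatment against a graded standard scale.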

pale smartweed (Po) [27] = assay: as above; type: in vivo; set-up: scale not given here; details: 100 g active ingredient per 10 ares, evaluated 14th day after treatment
Method in brief: as §8

Diaitaria ciliaris (Di) = assay: as above; type: in vivo; set-up: scale not given here; details: 100 g active ingredient per 10 ares, evaluated 14th day after treatment
Method in brief: as §8

slender amaranth (Am) [28] = assay: as above; type: in vivo; set-up: scale not given here; details: 100 g active ingredient per 10 ares, evaluated 14th day after treatment
Method in brief: as §8

barnyardgrass (Ec) [29] = assay: as above; type: in vivo; set-up: scale not given here; details: 100 g active ingredient per 10 ares, evaluated 14th day after treatment
Method in brief: as §8

[30] = tested on: common lambsquarters (Ch); assay: as above; type: in vivo; set-up: scale not given here; details: 100 g active ingredient per 10 ares, evaluated 14th day after treatment
Method in brief: as §8

corn (Ze) [31] = assay: Test Example 7: crop plant selectivity by upland field soil treatment (corn), phytotoxicity; type: in vivo; set-up: scale not given here; details: dose 6.3 g ai/10a, 21st day after application
Method in brief: as §6

Row | Compound | Herbicidal effects Ci (rice flatsedge (Ci) [1]) | Herbicidal effects Po (pale smartweed (Po) [2]) | Herbicidal effects Di (Digitaria ciliaris (Di)) | Herbicidal effects Am (slender amaranth (Am) [3]) | Herbicidal effects Ec (barnyardgrass (Ec) [4]) | Herbicidal effects Ch [5] | Herbicidal effects Mo (monochoria (Mo)) | Herbicidal effects Sc (bulrush (Sc)) | Herbicidal effects Ec (barnyardgrass (Ec) [6]) | Herbicidal effects Po (pale smartweed (Po) [7]) | Herbicidal effects Am (slender amaranth (Am) [8]) | Herbicidal effects Ab (China jute (Ab) [9]) | Herbicidal effects Ch [10] | Phytotoxicity Ze (corn (Ze) [11]) | Herbicidal effects Po (pale smartweed (Po) [17]) | Herbicidal effects Am (slender amaranth (Am) [18]) | Herbicidal effects Ab (China jute (Ab) [19]) | Herbicidal effects Ch [20] | Phytotoxicity Tr (wheat (Tr)) | Herbicidal effects Ci (rice flatsedge (Ci) [26]) | other results
1 | CC(C)C(=O)c1cc(-c2ccc(C(F)(F)F)n(C)c2=O)c(F)cc1Cl [Compound 1-196] | 5 | 5 | 5 | 5 | 5 | 5 | 5 | 5 | 5 | 5 | 5 | 5 | 5 | 2 | 5 | 5 | 5 | 5 | 2 | 5 | Phytotoxicity Go (cotton (Go)): 0; Herbicidal effects Po (pale smartweed (Po) [12]): 5; Herbicidal effects Se (green foxtail (Se) [13]): 5; Herbicidal effects Am (slender amaranth (Am) [14]): 5; Herbicidal effects Ab (China jute (Ab) [15]): 5; Herbicidal effects Ch [16]: 5; Herbicidal effects Po (pale smartweed (Po) [21]): 5; Herbicidal effects Se (green foxtail (Se) [22]): 5; Herbicidal effects Am (slender amaranth (Am) [23]): 5; Herbicidal effects Ab (China jute (Ab) [24]): 5; Herbicidal effects Ch [25]: 5; Herbicidal effects Po (pale smartweed (Po) [27]): 5; Herbicidal effects Di (Diaitaria ciliaris (Di)): 5; Herbicidal effects Am (slender amaranth (Am) [28]): 5; Herbicidal effects Ec (barnyardgrass (Ec) [29]): 5; Herbicidal effects Ch [30]: 5; Phytotoxicity Ze (corn (Ze) [31]): 1
2 | Cn1c(C(F)(F)F)ccc(-c2cc(OCCCF)c(Cl)cc2F)c1=O [Compound 1-204] | 5 | 5 | 5 | 5 | 5 | 5 | 5 | 5 | 5 | 5 | 5 | 5 | 5 | 2 | 5 | 5 | 5 | 5 | 2 | 5 | Herbicidal effects Po (pale smartweed (Po) [27]): 5; Herbicidal effects Di (Diaitaria ciliaris (Di)): 5; Herbicidal effects Am (slender amaranth (Am) [28]): 5; Herbicidal effects Ec (barnyardgrass (Ec) [29]): 5; Herbicidal effects Ch [30]: 5
3 | C=C(Cl)COc1cc(-c2ccc(C(F)(F)F)n(C)c2=O)c(F)cc1Cl [Compound 1-203] | 5 | 5 | 5 | 5 | 5 | 5 | 5 | 5 | 5 | 5 | 5 | 5 | 5 | 2 | 5 | 5 | 5 | 5 | 2 | 5 | Herbicidal effects Po (pale smartweed (Po) [27]): 5; Herbicidal effects Di (Diaitaria ciliaris (Di)): 5; Herbicidal effects Am (slender amaranth (Am) [28]): 5; Herbicidal effects Ec (barnyardgrass (Ec) [29]): 5; Herbicidal effects Ch [30]: 5
